{
  "source": "paper PMC7253177",
  "about": "“Gain of channel function and modified gating properties in TRPM3 mutants causing intellectual disability and epilepsy” (eLife, 2020)",
  "key": {"[1]": {"system": "WT:P1090Q TRPM3 mixture", "experiment": "Whole-cell patch clamp, HEK293T cells co-transfected with WT and P1090Q TRPM3 (1:1)", "format": "cell-based, human", "conditions": "WT:P1090Q 1:1; Clt 10 µM, PS 40 µM", "from_the_text": "(§1) Considering that all reported DEE patients were heterozygous for the TRPM3 substitutions ([Dyment et al., 2019]), and that TRPM3 is functional as a tetramer, it can be expected that patient cells express a mixture of WT and mutant channel subunits, potentially leading to the formation of heteromultimeric channels with variable stoichiometry. To mimic the heterozygous condition in vitro, we performed a limited number of experiments in cells co-transfected with a mixture of cDNA encoding WT and mutant TRPM3 in a 1:1 ratio.\n(§2) HEK293T cells ([Graham et al., 1977]) were cultured as described previously ([Vriens et al., 2007]) and used up in passage number 14. HEK293T cells were tested for the lack of mycoplasma and transiently transfected with 2 µg of DNA using TransIT transfection reagent (Mirus) 36–48 hr before the measurements. In case of co-cultures a ratio of 1:1 between hTRPM3-YFP WT and mutants-YFP DNA was used.\n(§3) Standard whole-cell patch-clamp recordings were performed with an EPC-10 amplifier and the PatchMasterPro Software (HEKA Elektronik, Lambrecht, Germany). Current measurements were performed at a sampling rate of 20 kHz and currents were digitally filtered at 2.9 kHz. In all measurements, 70% of the series resistance was compensated. […]"}, "[2]": {"system": "WT:V990M TRPM3 mixture", "experiment": "Whole-cell patch clamp, HEK293T cells co-transfected with WT and V990M TRPM3 (1:1)", "format": "cell-based, human", "conditions": "WT:V990M 1:1; Clt 10 µM", "from_the_text": "as §1, §2, §3"}, "[3]": {"molecular_target": "T1, TRPM3 P1090Q mutant (Homo sapiens, UniProt Q9HCF6, P1115Q)", "T1 sequence (Q9HCF6 1-1325 isoform Q9HCF6-10 P1090Q)": "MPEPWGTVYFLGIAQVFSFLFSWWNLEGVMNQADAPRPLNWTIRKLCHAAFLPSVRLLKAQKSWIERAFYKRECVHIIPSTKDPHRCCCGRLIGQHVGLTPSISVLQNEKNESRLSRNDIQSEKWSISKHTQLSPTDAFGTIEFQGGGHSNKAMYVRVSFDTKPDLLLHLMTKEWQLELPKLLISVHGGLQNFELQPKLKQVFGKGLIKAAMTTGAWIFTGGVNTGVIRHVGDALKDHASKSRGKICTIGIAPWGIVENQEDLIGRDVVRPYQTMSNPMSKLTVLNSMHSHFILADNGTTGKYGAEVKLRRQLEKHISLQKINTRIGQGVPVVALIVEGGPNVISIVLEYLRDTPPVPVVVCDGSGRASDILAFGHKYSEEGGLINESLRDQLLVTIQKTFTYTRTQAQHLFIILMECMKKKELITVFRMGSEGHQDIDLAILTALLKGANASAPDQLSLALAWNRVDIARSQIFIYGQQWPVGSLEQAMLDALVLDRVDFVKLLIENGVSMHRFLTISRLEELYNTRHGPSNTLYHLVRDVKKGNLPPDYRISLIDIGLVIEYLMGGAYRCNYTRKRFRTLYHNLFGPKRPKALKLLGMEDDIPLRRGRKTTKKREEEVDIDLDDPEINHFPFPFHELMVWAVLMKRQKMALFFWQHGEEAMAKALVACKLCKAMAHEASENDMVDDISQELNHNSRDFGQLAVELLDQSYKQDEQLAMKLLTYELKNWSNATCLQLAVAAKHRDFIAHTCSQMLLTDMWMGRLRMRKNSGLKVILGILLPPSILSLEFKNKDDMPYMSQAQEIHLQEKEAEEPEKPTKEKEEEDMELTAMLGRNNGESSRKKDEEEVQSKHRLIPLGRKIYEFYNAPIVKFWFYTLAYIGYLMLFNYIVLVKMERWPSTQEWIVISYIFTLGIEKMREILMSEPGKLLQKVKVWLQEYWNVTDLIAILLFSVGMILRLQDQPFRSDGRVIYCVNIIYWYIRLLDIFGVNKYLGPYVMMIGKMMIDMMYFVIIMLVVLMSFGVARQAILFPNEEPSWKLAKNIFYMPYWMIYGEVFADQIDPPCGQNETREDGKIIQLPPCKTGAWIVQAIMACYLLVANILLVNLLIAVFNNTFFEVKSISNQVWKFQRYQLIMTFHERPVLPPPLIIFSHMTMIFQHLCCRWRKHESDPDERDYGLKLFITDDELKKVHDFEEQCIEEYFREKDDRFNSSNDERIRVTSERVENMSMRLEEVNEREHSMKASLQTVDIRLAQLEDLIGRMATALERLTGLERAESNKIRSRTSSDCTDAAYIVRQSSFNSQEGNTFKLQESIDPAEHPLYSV", "experiment": "Fura-2-based calcium imaging, HEK293T cells transfected with P1090Q hTRPM3", "format": "cell-based", "set-up": "expressed in transfected cells; host or cells: HEK293T", "procedure": "as §2\nAll mutants were obtained by the standard PCR overlap extension method using hTRPM3 directly linked to YFP from pCAGGS/IRES-GFP vector ([Vriens et al., 2007]). Accuracy of all mutant sequences was verified by sequencing of the entire DNA constructs.\nChanges in intracellular calcium concentration were monitored using ratiometric Fura-2-based fluorimetry. Cells were loaded with 2 µM Fura-2-acetoxymethyl ester (Alexis Biochemicals) for 30 min at 37°C. Fluorescence was measured during alternating illumination at 340 and 380 nm using Eclipse Ti (Nikon) fluorescence microscopy system, and absolute calcium concentration was calculated from the ratio of the fluorescence signals at these two wavelengths (R = F340/F380) as [Ca^2+]=Km × (R-Rmin)/(Rmax-R), where Km, Rmin and Rmax were estimated from in vitro calibration experiments with known calcium concentrations. The bath solution contained (in mM) 138 NaCl, 5.4 KCl, 2 CaCl2, 2 MgCl2, 10 glucose, and 10 HEPES, pH 7.4. […]"}},
  "data": [
    {"compound": "Clc1ccccc1C(c1ccccc1)(c1ccccc1)n1ccnc1", "note": "[Clt, clotrimazole]", "values": [
      {"measurement": "Effect of pre-incubation on PS responses (whole-cell currents)", "setting": "[1]", "value": "first a potentiation of the PS responses by pre-incubation of Clt, followed by a time-dependent current inhibition"},
      {"measurement": "Activation of whole-cell currents in the absence of PS", "setting": "[2]", "value": "activated robust currents"}
    ]},
    {"compound": "CCC1(c2ccccc2)C(=O)NCNC1=O", "note": "[primidone]", "values": [
      {"measurement": "Effect on basal [Ca2+]i", "setting": "[3]; primidone 100 µM, isosakuranetin 50 µM", "value": "reduced [Ca^2+]i"}
    ]},
    {"compound": "pregnenolone sulfate [PS]", "values": [
      {"measurement": "PS concentration giving robust calcium responses (as low as)", "setting": "[3]", "value": 1, "unit": "µM"}
    ]}
  ]
}
